In US20170198011A1, “COMPOSITION FOR TREATING SEPSIS OR SEPTIC SHOCK COMPRISING THE PEPTIDE ORIGINATED FROM THE SMAD6” (Medpacto, Inc., priority 2011, published 2017):
Where no end group is shown, it is not given here.

T1: Pellino-1N domain (Homo sapiens, UniProt Q96FA3)
T1 construct: expressed in transfected cells; host or cells: HEK293
T1 sequence (Q96FA3 1-140 limits assumed): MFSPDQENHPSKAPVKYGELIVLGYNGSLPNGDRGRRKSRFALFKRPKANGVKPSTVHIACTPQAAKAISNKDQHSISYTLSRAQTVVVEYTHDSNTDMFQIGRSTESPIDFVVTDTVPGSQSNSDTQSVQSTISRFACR

T2: Pellino-1 (Homo sapiens, UniProt Q96FA3)
T2 construct: plus an HA-tagged full length Pellino-1 plasmid; expressed in transfected cells; host or cells: HEK293
T2 sequence (Q96FA3 1-418): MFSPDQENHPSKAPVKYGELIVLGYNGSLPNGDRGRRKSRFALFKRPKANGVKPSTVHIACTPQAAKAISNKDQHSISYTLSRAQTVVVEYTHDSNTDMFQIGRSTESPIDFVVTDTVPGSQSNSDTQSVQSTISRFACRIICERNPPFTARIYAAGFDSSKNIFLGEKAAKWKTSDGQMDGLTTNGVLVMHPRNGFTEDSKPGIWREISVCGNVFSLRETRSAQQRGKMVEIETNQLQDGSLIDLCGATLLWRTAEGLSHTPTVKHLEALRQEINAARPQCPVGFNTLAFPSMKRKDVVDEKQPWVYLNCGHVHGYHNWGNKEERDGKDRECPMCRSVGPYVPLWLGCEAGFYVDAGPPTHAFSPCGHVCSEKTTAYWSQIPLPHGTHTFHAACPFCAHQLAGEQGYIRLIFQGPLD


Columns and labels:
[1] = tested on: TGF-β1 signaling (Smad binding element); experiment: SBE-Luc reporter luciferase assay in CMT-93 cells; assay type: cell-based; settings: TGF-β1 5 ng/ml 2 hrs
From the text: FIG. 2A is a graph showing results of the luciferase assay conducted with CMT-93 cells after transfection with SBE-Luc reporter plasmid plus an empty vector, a plasmid carrying Myc-Smad6 (400-441), or a plasmid carrying full-length Smad6,
FIG. 3D is a graph showing TGF-β-induced luciferase activity in CMT-93 cells transformed with an SBE-Luc reporter plasmid plus an empty vector or a Myc-Smad6 (422-441) plasmid, and
(§1) To examine whether the small region of Smad6 MH2 domain specifically suppresses LPS-induced NF-κB signaling, a 5×NF-κB-Luc reporter plasmid and an SBE (Smad binding element)-Luc reporter plasmid were separately transfected, together with a plasmid expressing a peptide from amino acid 400 to 441 of Smad6, into a CMT-93 epithelial cell line with the aid of Effectene (Qiagen). Following treatment with LPS (10 ng/ml) or TGF-β1 (5 ng/ml) for 2 hrs, the transfected cells were examined for luciferase activity. […] All experiments were independently repeated three times, while a full-length Smad6 plasmid was used as a control.

NF-κB = experiment: 5xNF-κB-Luc reporter luciferase assay in CMT-93 cells; assay type: cell-based; settings: LPS 10 ng/ml 2 hrs
From the text: FIG. 2B is a graph showing results of the luciferase assay conducted with CMT-93 cells after transfection with a 5×NF-κB-Luc reporter plasmid plus an empty vector, a plasmid carrying Myc-Smad6 (400-441), or a plasmid carrying full-length Smad6, and
FIG. 3E is a graph showing TGF-β-induced luciferase activity in CMT-93 cells transformed with a 5×NF-κB-Luc reporter plasmid plus an empty vector or a Myc-Smad6 (422-441) plasmid;
as §1

Pellino-1N domain = target: T1, Pellino-1N domain; experiment: Co-immunoprecipitation of Smad6 MH2 mutants with HA-tagged Pellino-1N in HEK293 cells; assay type: binding; settings: truncated mutants of Smad6 MH2 domain
From the text: To examine a minimum region of Smad6 that binds certainly to Pellino-1, which specifically interrupts NF-κB (κB nuclear factor kappa B) signaling, mutants were constructed by consecutively truncating the Smad6 MH2 domain, and analyzed using a co-immunoprecipitation assay.
[…] Plasmids carrying genes for different regions of Smad6 (Myc-Smad6 MH2, Myc-Smad6 346F, Myc-Smad6 371F, Myc-Smad6 385F, Myc-Smad6 464R, Myc-Smad6 441R, Myc-Smad6 410R, Myc-Smad6 385-441, Myc-Smad6 385-427, Myc-Smad6 385-418, Myc-Smad6 385-410, Myc-Smad6 400-441, Myc-Smad6 400-427, Myc-Smad6 400-418, Myc-Smad6 400-410, Myc-Smad6 422-441) were constructed by amplifying a full-length Smad6 cDNA by PCR and subcloning it into the BamHI/XhoI site of the pSC3+MT 6×Myc vector. Myc-Smad6 R429A, Myc-Smad6 P432A, Myc-Smad6 P433G, Myc-Smad6 Y435F, and Myc-Smad6 I437D were created using a QuikChange mutagenesis kit (Stratagene).
A co-immunoprecipitation assay was carried out as follows. […]

IκBα = experiment: Immunoblot of LPS-induced IκBα degradation in stably transformed CMT-93 cells; assay type: cell-based; settings: CMT-93 cells stably expressing the region
From the text: To confirm the specific inhibitory activity of the Smad6 β-sheet small region against NF-κB signaling, the epithelial cell line CMT-93, which is susceptible to both TGF-β1 and LPS, was transformed to stably express the Smad6 β-sheet region.

Pellino-1 = target: T2, Pellino-1; experiment: Co-immunoprecipitation of Smad6 truncated mutants with HA-tagged full length Pellino-1 in HEK293 cells; assay type: binding
Experimental: (§2) A co-immunoprecipitation assay was carried out as follows. For use as antibodies in co-immunoprecipitation, mouse anti-HA (F-7), mouse anti-c-Myc (9E10), rabbit anti-IκBα (C-21), mouse anti-IRAK1 (F-4), and mouse anti-TRAF6 (D-10) were purchased from Santa Cruz Biotechnology (USA), the antibodies rabbit anti-Pellino-1 and rabbit anti-IRAK4 from Imgenex, the antibodies rabbit anti-Smad6, rabbit anti-MyD88 (D80F5), rabbit anti-IKKα, rabbit anti-phospho-IKKα/β, rabbit anti-RIP1 (D94C12), rabbit anti-IKKi (anti-IKKE; D61F9), rabbit anti-TBK1 (D1B4), rabbit anti-GRK2 from Cell Signaling, and the antibody anti-β-actin from Sigma. Cells were lysed in a lysis buffer (PBS containing 0.5% Triton X-100, 20 mM HEPES (pH 7.4), 150 mM NaCl, 12.5 mM β-glycerol phosphate, 1.5 mM MgCl2, 10 mM NaF, 2 mM DTT, 1 mM Na3O4V, 2 mM EGTA, 1 mM PMSF and protease inhibitor mixture), and harvested by centrifuging 13,000 rpm for 10 min. For immunoprecipitation, the cell lysate were incubated at 4° C. for 12 hrs with protein-A agarose beads and the above-mentioned antibodies. Afterwards, the beads were washed three times with a lysis buffer, and treated with a 2× sample buffer to separate the co-immunoprecipitates therefrom. The co-immunoprecipitates were boiled, followed by SDS-PAGE. […]

IRAK1, TRAF6, MyD88 = experiment: Co-immunoprecipitation of Smad6 (422-441) with other TLR4 signaling proteins in HEK293 cells; assay type: binding; settings: Flag-IRAK1, Flag-TRAF6, Flag-MyD88
Experimental: as §2

Molecule | TGF-β1-mediated reporter activity [1] | NF-κB-mediated reporter activity (NF-κB) | interaction with the Pellino-1N domain (Pellino-1N domain) | LPS-induced IκBα degradation detected (IκBα) | binding to Pellino-1 (Pellino-1) | binding to other proteins involved in the TLR4 signaling pathway (IRAK1, TRAF6, MyD88)
Myc-Smad6 400-441: plasmid-expressed Myc-tagged peptide region from amino acid 400 to 441 of the Smad6 MH2 domain (VWAYNRGEHPIFVNSPTLDAPGGRALVVRKVPPGYSIKVFDF; also: Myc tag, plasmid-expressed; UniProt O43541 400-441, looked up, fragment) | did not suppress | selectively suppressed | interact | not |  | 
Myc-Smad6 422-441: plasmid-expressed Myc-tagged minimum region, amino acid 422 to 441 of Smad6 (GGRALVVRKVPPGYSIKVFD; also: Myc tag, plasmid-expressed) | did not suppressed | specifically suppressing |  |  | sufficient and minimally required | not to other proteins involved in the TLR4 signaling pathway
full-length Smad6: full-length Smad6 plasmid used as a control (protein, UniProt O43541 1-496, looked up, full-length, full-length Smad6 plasmid used as a control) MFRSKRSGLVRRLWRSRVVPDREEGGSGGGGGGDEDGSLGSRAEPAPRAREGGGCGRSEVRPVAPRRPRDAVGQRGAQGAGRRRRAGGPPRPMSEPGAGAGSSLLDVAEPGGPGWLPESDCETVTCCLFSERDAAGAPRDASDPLAGAALEPAGGGRSREARSRLLLLEQELKTVTYSLLKRLKERSLDTLLEAVESRGGVPGGCVLVPRADLRLGGQPAPPQLLLGRLFRWPDLQHAVELKPLCGCHSFAAAADGPTVCCNPYHFSRLCGPESPPPPYSRLSPRDEYKPLDLSDSTLSYTETEATNSLITAPGEFSDASMSPDATKPSHWCSVAYWEHRTRVGRLYAVYDQAVSIFYDLPQGSGFCLGQLNLEQRSESVRRTRSKIGFGILLSKEPDGVWAYNRGEHPIFVNSPTLDAPGGRALVVRKVPPGYSIKVFDFERSGLQHAPEPDAADGPYDPNSVRISFAKGWGPCYSRQFITSCPCWLEILLNNPR | suppressed | suppressed |  |  |  | 
